Common to all, as to assay type: ADME
For series [1], the system named is Liver microsome. Nature of the series: Drug level in pooled human liver microsomes treated with clozapine at 100 uM after 30 mins by HPLC analysis. The note with it: 0.5 h. (In general: Microsomes from liver hold many membrane-bound enzymes, among them those of drug oxidation.)
Substrate in series [2]: CN1CCN(C2=Nc3cc(Cl)ccc3Nc3ccccc32)CC1
Nature of the series: Drug metabolism in supersomes expressing human recombinant CYP2D6 assessed as enzyme-mediated clozapine N-oxide metabolite formation after 15 mins by Michaelis-Menten equation analysis.

Substrate in series [3]: CN1CCN(C2=Nc3cc(Cl)ccc3Nc3ccccc32)CC1
Nature of the series: Drug metabolism in supersomes expressing human recombinant CYP2D6 assessed as enzyme-mediated N-demethyl clozapine metabolite formation after 15 mins by Michaelis-Menten equation analysis.

Substrate in series [4]: CN1CCN(C2=Nc3cc(Cl)ccc3Nc3ccccc32)CC1
Nature of the series: Drug metabolism in supersomes expressing human recombinant CYP2D6 assessed as enzyme-mediated total GSH conjugate formation after 15 mins by Michaelis-Menten equation analysis.

Broadly, the Km is the concentration of substrate that gives half-maximal velocity.

Consider `Clc1ccc2c(c1)N=C(N1CCNCC1)c1ccccc1N2` [N-DESMETHYLCLOZAPINE], for which the Drug metabolism result in series [1] is “metabolite_detected”. On the same count and under the same terms, as for `C[N+]1([O-])CCN(C2=Nc3cc(Cl)ccc3Nc3ccccc32)CC1`, the entry is “metabolite_detected”; as for `CN1CCN(C2=Nc3cc(Cl)c(O)cc3Nc3ccccc32)CC1`, “metabolite_detected”.

In the case of `NCCNC1=Nc2cc(Cl)ccc2Nc2ccccc21`, in series [1], the Drug metabolism result is recorded as “metabolite_detected”. Turning to `CN1CCN(C2=Nc3c(ccc(Cl)c3O)Nc3ccccc32)CC1`, the Drug metabolism entry in series [1] was “metabolite_detected”. Turning to `CNCCNC1=Nc2cc(Cl)ccc2Nc2ccccc21`, the Drug metabolism entry in series [1] is reported as “metabolite_detected”.

B1: Cytochrome P450 2D6 (Homo sapiens) (protein)
chain: MGLEALVPLAVIVAIFLLLVDLMHRRQRWAARYPPGPLPLPGLGNLLHVDFQNTPYCFDQLRRRFGDVFSLQLAWTPVVVLNGLAAVREALVTHGEDTADRPPVPITQILGFGPRSQGVFLARYGPAWREQRRFSVSTLRNLGLGKKSLEQWVTEEAACLCAAFANHSGRPFRPNGLLDKAVSNVIASLTCGRRFEYDDPRFLRLLDLAQEGLKEESGFLREVLNAVPVLLHIPALAGKVLRFQKAFLTQLDELLTEHRMTWDPAQPPRDLTEAFLAEMEKAKGNPESSFNDENLRIVVADLFSAGMVTTSTTLAWGLLLMILHPDVQRRVQQEIDDVIGQVRRPEMGDQAHMPYTTAVIHEVQRFGDIVPLGVTHMTSRDIEVQGFRIPKGTTLITNLSSVLKDEAVWEKPFRFHPEHFLDAQGHFVKPEAFLPFSAGRRACLGEPLARMELFLFFTSLLQHFSFSVPTGQPRPSHHGVFAFLVSPSPYELCAVPR
B1: the Km is 84.1 µM in series [2], 25.3 µM in series [3] and 21.9 µM in series [4].

The values are drawn from ChEMBL document CHEMBL3525934 (Drug Metab Dispos, 2013).
